Where two headings read alike, the source gives them in different places.
How the values were obtained:
[1] = system: osteoblastic (MC3T3-E1) and chondrocytic (N1511) cells; details: cited from earlier work
S. aureus [2] = test: Bacterial colonization of inoculated spinal sites in a cadaverous rabbit; details: sites inoculated with 10^4 CFU S. aureus; insonation 20 min, 5 MHz, 3 MPa pk-pk
Procedure: (§1) The first set of experiments uses rabbit carcasses to establish US parameters that reproducibly release the desired amounts of ABX within a mock spinal fusion site. Preliminary tests on such animals in which VAN-loaded (4 mg), PLA-sealed sheaths were placed in 4 spinal levels of a cadaverous rabbit. Site 1 and Site 3 were inoculated with 10^4 CFU S. aureus in 100 μL PBS, and Site 2 and 4 were encased in plastic to collect released VAN. Without any optimization of US parameters, ˜50% of the VAN was released by insonation (20 min, 5 MHz, 3 MPapk-pk) and caused ˜10× less bacterial colonization.

bacteria = details: US plus VAN; cited from earlier work
bacterial lawn = test: Passive elution of VAN from allograft bone and bacterial killing (FIG. 6); details: initial loading 10 mg/ml VAN
Procedure: Antibacterial activity of bone allografts: comparison of a new vancomycin-tethered allograft with allograft loaded with adsorbed vancomycin. This is an example of the elution that can be achieved without enhancement by ultrasound.
(initial loading: 10 mg/ml VAN, FIG. 6). However, a preferred sheath is sealed so that it retains antibiotics without leakage for up to 7 days (to allow for triggered release at any time prior to patient discharge) and then releases >99% of the antibiotics within 24 hrs. of US insonation. Accordingly, release can be determined based on the specific needs of the patient. Therapeutic materials loaded into the sheath may be liquids, solids, gels, or combinations thereof. Release profile of these different materials may require different structures to allow for the appropriate release.

[3] = VAN release from PLA-sealed sheaths in spinal levels of a cadaverous rabbit; details: 4 mg VAN-loaded PLA-sealed sheaths; 20 min, 5 MHz, 3 MPa pk-pk; US parameters not optimized
Procedure: as §1

[4] = US release of VAN from porous PLA-sealed PEEK block; format: physicochemical; details: 10 mg VAN loaded; 10 min US insonation (5 MHz, 4 MPa)
Procedure: During the first 15 min of immersion, 11 mg and 3 mg of drug were released (due to surface amounts in PLA) from the groups. […] […] (4) Three PLA coatings for US rupture using highly porous PEEK.

S. aureus [5] = details: cited from earlier work
[6] = US-mediated methylene blue release from PLA-sealed multiport (1 mm) PEEK sheath; format: physicochemical
Procedure: Multiple 1 mm holes (left) and one 3 mm hole (right) sheaths were submerged in water and release of methylene blue (MeB) or MeB+VAN was measured spectrophotometrically.
During the first 15 min of immersion, 11 mg and 3 mg of drug were released (due to surface amounts in PLA) from the groups. […] With a 15 min insonation (5 MHz, 3 MPa), 15 mg was released within one hour and the remaining 24 mg of drug was released by 72 hrs^39. (4) Three PLA coatings for US rupture using highly porous PEEK.

O=C(O)c1cn(C2CC2)c2cc(N3CCNCC3)c(F)cc2c1=O [CIP, ciprofloxacin]
concentration at which toxicity / cell death initiates [1]: 150 to 200 µg/mL

CN[C@H](CC(C)C)C(=O)N[C@H]1C(=O)N[C@@H](CC(N)=O)C(=O)N[C@H]2C(=O)N[C@H]3C(=O)N[C@H](C(=O)N[C@H](C(=O)O)c4cc(O)cc(O)c4-c4cc3ccc4O)[C@H](O)c3ccc(c(Cl)c3)Oc3cc2cc(c3O[C@@H]2O[C@H](CO)[C@@H](O)[C@H](O)[C@H]2O[C@H]2C[C@](C)(N)[C@H](O)[C@H](C)O2)Oc2ccc(cc2Cl)[C@H]1O [VAN, vancomycin]
less bacterial colonization (S. aureus [2]): ~10 × | further decrease of bacterial numbers by US in the presence of VAN (bacteria): 50-90% | bacterial killing (bacterial lawn; especially within the first 48 hr.): significant bacterial killing | elution from allograft bone (bacterial lawn; no ultrasound): rapid passive elution | concentration at which toxicity / cell death initiates ([1]; MC3T3-E1 and N1511 cells): above 1 mg/ml | toxicity in words ([1]; MC3T3-E1 and N1511 cells): low toxicity | VAN released by insonation [3]: ~50% | released VAN after US insonation [4]: 7.5 mg | bacterial levels on metal surface versus 0 and 4 ug/ml VAN (S. aureus [5]; 100 ug/ml of VAN (FIG. 2C)): massive reduction in bacterial levels | reduction of bacterial colonization (S. aureus [5]; 1 hr., 100× MIC): many-fold

CN(C)c1ccc2nc3ccc(=[N+](C)C)cc-3sc2c1 [MeB, methylene blue]
increase in MeB release, US group ([6]; US insonated, over 8 days): 757% | increase in MeB release, non-insonated controls ([6]; no US, at 2 days): 26% | additional MeB release, non-insonated controls ([6]; no US, out to 6 days): no additional release

NC[C@H]1O[C@H](O[C@H]2[C@H](O)[C@@H](O[C@H]3O[C@H](CO)[C@@H](O)[C@H](N)[C@H]3O)[C@H](N)C[C@@H]2N)[C@H](N)C[C@@H]1O [TOB, tobramycin]
concentration at which toxicity / cell death initiates [1]: ~500 µg/mL
